Source: US4939177A, “Use of avarol for the control of AIDS and ARC” (Merz + Co. GmbH & Co., priority 1986, dated 1990)
Read-outs that look alike come from different tables or passages of the source.

Experiments:
[1] = test system: L5178y mouse lymphoma cells; assay: L5178y cell growth; type: cell-based; details: 72 hours
Experimental: mouse lymphoma cells were grown in roller tube cultures in Eagle's minimum essential medium, supplemented with 10% horse serum (Muller et al., Cancer Res. 39: 1102-1107; 1979 and Muller et al. Cancer Res. 45: 4822-4826; 1985). […] The cell growth was determined by cell count with a computer supported cell-counter (128-channel counter; Cytocomp, system Michaelis: BIOTRON-Medizinelektronik, Mainz; West Germany). The ED50 (±SD) was estimated by logit regression (L. Sachs, […], Springer-Verlag, Berlin 1984). The mathematical evaluation of the fractional inhibitory concentration indices (FIC indices) of Avarol/Avarone-DDC combinations was performed according to published equations and experimental conditions (Muller et al., Cancer Lett. 1: 127-132; 1976; and Phillips et al., Antimicrob. Agents Chemother. 9: 736-740, 1976). […] In this set of experiments, […] cells were incubated with Avarol in the absence or presence of the established SODase inhibitor DDC.

[2] = test system: human peripheral blood lymphocytes (IgM); assay: In vitro IgM production by peripheral blood lymphocytes; type: cell-based
Experimental: Human peripheral blood lymphocytes (6×10^5 cells/ml) were cultured in the presence of 0 to 2 μg/ml of pokeweed mitogen (PWM; Sigma no. 9379) in Dulbeccos minimum essential medium, supplemented with 20% fetal calf serum, for 6 days. The assays were performed in a final volume of 200 μl in microtiter plates (Dynatech; M129B) (Muller et al., Eur. J. Cancer Clin. Oncol. 22: 473-476; 1986). Avarol in a concentration range of 0-3 μg/ml was added at time 0 or 3 days after starting the culture. The supernatants were harvested and assayed for human immunoglobulin content.
The culture supernatants were assayed by the enzyme-linked immunosorbent assay (Houtman et al., Clin. Exp. Immunol. 62: 696-704; 1985) using anti-human IgG (Dakopatts, Hamburg; P214) and anti-human IgM (Dakopatts; P215). These antibodies were conjugated to peroxidase. Bound enzyme activity was measured using 2,2'-azino-bis(3-ethylbenzthiazolinesulfonic acid) (Sigma no. A-1888) as substrate.

[3] = test system: herpes simplex virus; details: in vitro, cultures of herpes simplex virus; cited from earlier work
[4] = type: in vivo, rat; details: for Percentage of Radioactivity in Blood: rat
[5] = test system: normal T-lymphocytes; details: cited from earlier work
[6] = test system: normal B-lymphocytes; details: cited from earlier work
[7] = test system: IgM titer; assay: Serum IgM titer of SRBC-immunized mice; type: in vivo, mouse; details: 30 mg/kg i.p.
Experimental: The plaque test of Jerne and Nordin (Science 140: 405-406, 1963) was used with the modification given by Cunningham and Szenberg (Immunolog. 14: 599-601; 1968). Briefly, 8 male NMRI mice per group (20-22 g) were immunized on day 0 by i.p. injection of 5×10^8 SRBC in 0.5 ml saline. Treatment with avarol was done i.p. either from day 0 to day +4 or from day -4 to day 0. One hour after the last drug administration, the animals were killed by a blow on the head and bled. The spleens were removed and a single cell suspension was prepared by teasing the pooled spleens through a 120-μm mesh sieve. After lysing the erythrocytes by 0.15M NH4 Cl, the cells were washed twice in Hank's balanced salt solution containing 29 ml of 7.5% NaHCO3 and 10 ml of 1M HEPES buffer solution per one liter. The cells were resuspended in 2 ml per spleen. Six Cunningham chambers per group were filled with a mixture of 0.5 ml of a suitable dilution of spleen cells (generally 1:100), 0.5 ml of a suspension of SRBC (10^9 /ml) and 125 μl of normal guinea pig complement. After 90-120 min of incubation at 37° C., the number of plaques was counted. Plaques per spleen or per 10^6 spleen cells were calculated.
The pooled blood of 8 mice was centrifuged to obtain the serum. IgM and IgG titers were measured with the mercaptoethanol method (Hudson, L. and Hay, F. C. Practical Immunology, Blackwell Sci., Oxford; 1983).

[8] = test system: Arthus reaction in Sprague-Dawley rats; assay: Antibody mediated hypersensitivity (modified active Arthus reaction, ovalbumin); type: in vivo, rat

SMILES: CC1=CCC[C@H]2[C@](C)(Cc3cc(O)ccc3O)[C@@H](C)CC[C@]12C [Avarol, 2-[(1R)-1,2,3,4,4a,7,8,8aα-octahydro-1β,2β,4aβ,5-tetramethyl-1-naphthylmethyl]-1,4-benzenediol]
- IC50 ([1]; DDC 1.46 μM, read-out: ED50 with coaddition of DDC): 270 ± 40 nM
- IC50 ([1]; DDC 1.71 μM, read-out: ED50 with coaddition of DDC): 108 ± 15 nM
- IC50 ([1]; Mus musculus, L5178Y, cell growth, absence of DDC, read-out: ED50 (the source's name)): 940 ± 140 nM
- IgM production, in words ([2]; 0.3 or 1 μg/ml, irrespective of PWM): significant increase
- IgM synthesized ([2]; avarol 0.3 μg/ml, PWM +, 0 to 6 days): 20.4 ± 5.1 µg/mL
- IgM synthesized ([2]; avarol 0.3 μg/ml, PWM +, 3 to 6 days): 24.7 ± 5.6 µg/mL
- IgM synthesized ([2]; avarol 0.3 μg/ml, PWM -, 0 to 6 days): 14.7 ± 3.4 µg/mL
- IgM synthesized ([2]; avarol 0.3 μg/ml, PWM -, 3 to 6 days): 14.2 ± 3.3 µg/mL
- IgM synthesized ([2]; avarol 1.0 μg/ml, PWM +, 0 to 6 days): 23.5 ± 5.5 µg/mL
- IgM synthesized ([2]; avarol 1.0 μg/ml, PWM +, 3 to 6 days): 25.6 ± 5.9 µg/mL
- IgM synthesized ([2]; avarol 1.0 μg/ml, PWM -, 0 to 6 days): 15.6 ± 4.0 µg/mL
- IgM synthesized ([2]; avarol 1.0 μg/ml, PWM -, 3 to 6 days): 15.9 ± 4.2 µg/mL
- IgM synthesized ([2]; avarol 3.0 μg/ml, PWM +, 0 to 6 days): 10.5 ± 2.6 µg/mL
- IgM synthesized ([2]; avarol 3.0 μg/ml, PWM +, 3 to 6 days): 11.7 ± 2.9 µg/mL
- IgM synthesized ([2]; avarol 3.0 μg/ml, PWM -, 0 to 6 days): 8.1 ± 1.8 µg/mL
- IgM synthesized ([2]; avarol 3.0 μg/ml, PWM -, 3 to 6 days): 8.4 ± 1.9 µg/mL
- IgM production, in words ([2]; higher avarol concentrations): turned to normal values
- virostatic action [3]: certain virostatic action in vitro
- Percentage of Radioactivity in Blood ([4]; i.v. 10 mg/kg, 1 hour, 100% = 10 minutes after injection): 96%
- Percentage of Radioactivity in Blood ([4]; i.v. 10 mg/kg, 6 hours, 100% = 10 minutes after injection): 88%
- Percentage of Radioactivity in Blood ([4]; i.v. 10 mg/kg, 12 hours, 100% = 10 minutes after injection): 72%
- Percentage of Radioactivity in Blood ([4]; i.v. 10 mg/kg, 24 hours, 100% = 10 minutes after injection): 43%
- Percentage of Radioactivity in Blood ([4]; i.v. 10 mg/kg, 48 hours, 100% = 10 minutes after injection): 26%
- Percentage of Radioactivity in Blood ([4]; i.v. 20 mg/kg, 1 hour, 100% = 10 minutes after injection): 92%
- Percentage of Radioactivity in Blood ([4]; i.v. 20 mg/kg, 12 hours, 100% = 10 minutes after injection): 75%
- Percentage of Radioactivity in Blood ([4]; i.v. 20 mg/kg, 24 hours, 100% = 10 minutes after injection): 39%
- Percentage of Radioactivity in Blood ([4]; i.v. 20 mg/kg, 48 hours, 100% = 10 minutes after injection): 21%
- Percentage of Radioactivity in Blood ([4]; in vivo, iv, 20 mg/kg): 83
- half-life ([4]; rats, i.v.): approximately 22 hours
- concentration inhibiting [^3 H] dThd-incorporation rate by 50% [5]: 0.5 to 1.3 µg/mL
- concentration inhibiting [^3 H] dThd-incorporation rate by 50% [6]: 1.6 to 1.9 µg/mL
- Titer IgM ([7]; from 0 to +4 days, untreated 256): 256
- Titer IgM ([7]; from -4 to 0 days, untreated 512): 512
- Arthus reaction, in words ([8]; 30 mg/kg, 24 hours and 30 minutes before challenge, P>0.05): weak suppression of the reaction
- Arthus reaction, in words ([8]; 3-30 mg/kg i.p., day -1 to +2, day +18 to +21, or immediately before challenge): no significant suppression of the Arthus reaction
